Experimental data published in patent US20180305345A1 (priority 2015, published 2018).

test system: VSVΔ51 in 786-0 cells; test: not given; assay type: cell-based, human; details: not given

Structure (SMILES) | enhancement of viral titers after pre-incubation of compound in media
O=C1OC(c2ccccc2)C(Cl)=C1Cl (centres unmarked) [Compound 1, 3,4-dichloro-5-phenyl-2,5-dihydrofuran-2-one, reference compound] | did not lead to robust enhancement of viral titers

test system: oncolytic HSV-1 expressing GFP in 786-0 cancer cells; test: not given; assay type: cell-based, human; details: not given

Structure (SMILES) | growth of oncolytic HSV-1 expressing GFP
O=C1OC(c2ccccc2)C(Cl)=C1Cl (centres unmarked) [Compound 1, 3,4-dichloro-5-phenyl-2,5-dihydrofuran-2-one, reference compound] | increased growth
O=C1C(Cl)=C(Cl)C(O)N1Cc1ccccc1 (stereo not drawn) [Compound 10, α,β-dichloro-γ-hydroxy-N-benzyl-crotonic lactam] | increased growth

test system: VSVΔ51-GFP in CT26 murine colon cancer tumors; test: not given; assay type: cell-based, mouse; details: not given

Structure (SMILES) | VSVΔ51-GFP titers / replication in tumor specimens | enhancement of VSVΔ51 output in tumor specimens [fold]
O=C1OC(c2ccccc2)C(Cl)=C1Cl (centres unmarked) [Compound 1, 3,4-dichloro-5-phenyl-2,5-dihydrofuran-2-one, reference compound] | enhanced | –
O=C1C(Cl)=C(Cl)C(O)N1CCN1CCOCC1 (centres unmarked) [Compound 28, 3,4-dichloro-5-hydroxy-1-(2-morpholinoethyl)-1H-pyrrol-2(5H)-one] | – | ~100
O=C1C(Cl)=C(Cl)C(O)N1Cc1ccc(C(F)(F)F)cc1 (centres unmarked) [Compound 40, 3,4-dichloro-5-hydroxy-1-(4-(trifluoromethyl)benzyl)-1H-pyrrol-2(5H)-one] | enhances replication in tumors | –

test system: VSVΔ51-FLuc in CT26 tumors; test: not given; parameters: species or system Balb/c mice; details: mouse, in vivo

Structure (SMILES) | tumor-specific viral replication (luciferase activity, IVIS)
O=C1C(Cl)=C(Cl)C(O)N1CCN1CCOCC1 (centres unmarked) [Compound 28, 3,4-dichloro-5-hydroxy-1-(2-morpholinoethyl)-1H-pyrrol-2(5H)-one] | significantly enhanced

test system: MG1-eGFP in 786-0 cells; test: not given; assay type: cell-based, human; details: not given

Structure (SMILES) | GFP counts, MG1-eGFP
O=C1OC(c2ccccc2)C(Cl)=C1Cl (centres unmarked) [Compound 1, 3,4-dichloro-5-phenyl-2,5-dihydrofuran-2-one, reference compound] | increased GFP counts
O=C1C(Cl)=C(Cl)C(O)N1Cc1ccccc1 (stereo not drawn) [Compound 10, α,β-dichloro-γ-hydroxy-N-benzyl-crotonic lactam] | increased GFP counts
O=C1C(Cl)=C(Cl)C(O)N1CCN1CCOCC1 (centres unmarked) [Compound 28, 3,4-dichloro-5-hydroxy-1-(2-morpholinoethyl)-1H-pyrrol-2(5H)-one] | increased GFP counts
O=C1C(Cl)=C(Cl)C(O)N1CCc1ccccc1 (centres unmarked) [Compound 29, 3,4-dichloro-5-hydroxy-1-phenethyl-1H-pyrrol-2(5H)-one] | increased GFP counts

test system: ICPO-null HSV-N212eGFP in 786-0 cells; test: not given; assay type: cell-based, human; details: MOI 0.01, 48 h after infection

Structure (SMILES) | GFP counts, HSV-N212eGFP
O=C1OC(c2ccccc2)C(Cl)=C1Cl (centres unmarked) [Compound 1, 3,4-dichloro-5-phenyl-2,5-dihydrofuran-2-one, reference compound] | increased GFP counts
O=C1C(Cl)=C(Cl)C(O)N1Cc1ccccc1 (stereo not drawn) [Compound 10, α,β-dichloro-γ-hydroxy-N-benzyl-crotonic lactam] | increased GFP counts
O=C1C(Cl)=C(Cl)C(O)N1CCN1CCOCC1 (centres unmarked) [Compound 28, 3,4-dichloro-5-hydroxy-1-(2-morpholinoethyl)-1H-pyrrol-2(5H)-one] | increased GFP counts
O=C1C(Cl)=C(Cl)C(O)N1CCc1ccccc1 (centres unmarked) [Compound 29, 3,4-dichloro-5-hydroxy-1-phenethyl-1H-pyrrol-2(5H)-one] | increased GFP counts

test system: 786-0 cells; test: not given; details: human

Structure (SMILES) | LD50 [µM]
CC(=O)NCCSC1=C(Cl)C(=O)N(Cc2ccccc2)C1O (centres unmarked) [Compound 21] | >90
O=C1NC(O)C(Cl)=C1Cl (centres unmarked) [Compound 9] | 148
O=C1C(Cl)=C(Cl)C(O)(c2ccccc2)N1Cc1ccccc1 (centres unmarked) [Compound 15] | 66
O=C1C(Cl)=C(Cl)C(O)N1C1CC1 (centres unmarked) [Compound 25, 3,4-dichloro-1-cyclopropyl-5-hydroxy-1H-pyrrol-2(5H)-one] | 127
C#CCOC1OC(=O)C(Cl)=C1Cl (centres unmarked) [Compound 7] | 52
O=C1C=CC(O)N1Cc1ccccc1 (centres unmarked) [Compound 16] | >360
O=C1C(Cl)=C(c2ccccc2)C(O)N1Cc1ccccc1 (centres unmarked) [Compound 19] | 250
COC1C(Cl)=C(Cl)C(=O)N1Cc1ccccc1 (centres unmarked) [Compound 12] | 206
O=C1C(Cl)=C(Cl)C(=O)N1Cc1ccccc1 [Compound 14] | 104
O=C1OC(c2ccccc2)C(Cl)=C1Cl (centres unmarked) [Compound 1, 3,4-dichloro-5-phenyl-2,5-dihydrofuran-2-one, reference compound] | 79
CCC1=C(Cl)C(=O)N(Cc2ccccc2)C1O (centres unmarked) [Compound 18] | >360
O=C1C(Cl)=C(Cl)C(O)N1Cc1ccccc1 (stereo not drawn) [Compound 10, α,β-dichloro-γ-hydroxy-N-benzyl-crotonic lactam] | 67
O=c1[nH]n(-c2ccccc2)c(Cl)c1Cl [Compound 8] | >180
O=C1C(Cl)=C(Cl)C(O)N1CCN1CCOCC1 (centres unmarked) [Compound 28, 3,4-dichloro-5-hydroxy-1-(2-morpholinoethyl)-1H-pyrrol-2(5H)-one] | 153
O=C1C(Cl)=C(Cl)C(O)N1Cc1ccc(C(F)(F)F)cc1 (centres unmarked) [Compound 40, 3,4-dichloro-5-hydroxy-1-(4-(trifluoromethyl)benzyl)-1H-pyrrol-2(5H)-one] | 36
O=C1C(Cl)=C(Cl)CN1Cc1ccccc1 [Compound 11] | 332
COC1OC(=O)C(Cl)=C1Cl (centres unmarked) [Compound 6] | 73
O=C1OCC(Cl)=C1Cl [Compound 5, 3,4-Dichloro-5H-furan-2-one] | 41
CC(C)CNC1=C(Cl)C(=O)OC1c1ccccc1 (centres unmarked) [Compound 4] | 90
O=C1C(Cl)=C(Cl)C(O)N1CCc1ccccc1 (centres unmarked) [Compound 29, 3,4-dichloro-5-hydroxy-1-phenethyl-1H-pyrrol-2(5H)-one] | 74
O=C1OC(c2ccccc2)C(NCc2ccccc2)=C1Cl (centres unmarked) [Compound 3] | 140
CC(=O)OC1C(Cl)=C(Cl)C(=O)N1Cc1ccccc1 (centres unmarked) [Compound 13] | 61
O=C1OC(c2ccccc2)C(Br)=C1Br (centres unmarked) [Compound 2] | 87
O=C1c2ccccc2C(O)N1Cc1ccccc1 (centres unmarked) [Compound 20] | >360
CC1=C(C)C(O)N(Cc2ccccc2)C1=O (centres unmarked) [Compound 17] | >360

test system: not given; test: not given; details: Balb/c, mouse, pH 7.4

Structure (SMILES) | Plasma stab. % remaning at 3 hrs [%]
CC(=O)NCCSC1=C(Cl)C(=O)N(Cc2ccccc2)C1O (centres unmarked) [Compound 21] | 102.7 ± 10.8
O=C1NC(O)C(Cl)=C1Cl (centres unmarked) [Compound 9] | 0
O=C1C(Cl)=C(Cl)C(O)(c2ccccc2)N1Cc1ccccc1 (centres unmarked) [Compound 15] | 14.9 ± 7.1
O=C1C(Cl)=C(Cl)C(O)N1C1CC1 (centres unmarked) [Compound 25, 3,4-dichloro-1-cyclopropyl-5-hydroxy-1H-pyrrol-2(5H)-one] | 54.8 ± 3.6
C#CCOC1OC(=O)C(Cl)=C1Cl (centres unmarked) [Compound 7] | 0
O=C1C=CC(O)N1Cc1ccccc1 (centres unmarked) [Compound 16] | 98.2 ± 3.7
COC1C(Cl)=C(Cl)C(=O)N1Cc1ccccc1 (centres unmarked) [Compound 12] | 47.6 ± 1.4
O=C1C(Cl)=C(Cl)C(=O)N1Cc1ccccc1 [Compound 14] | 70.2 ± 8.4
O=C1OC(c2ccccc2)C(Cl)=C1Cl (centres unmarked) [Compound 1, 3,4-dichloro-5-phenyl-2,5-dihydrofuran-2-one, reference compound] | 0
O=C1C(Cl)=C(Cl)C(O)N1Cc1ccccc1 (stereo not drawn) [Compound 10, α,β-dichloro-γ-hydroxy-N-benzyl-crotonic lactam] | 19.8 ± 0.4
O=c1[nH]n(-c2ccccc2)c(Cl)c1Cl [Compound 8] | 88.3 ± 9.3
O=C1C(Cl)=C(Cl)C(O)N1CCN1CCOCC1 (centres unmarked) [Compound 28, 3,4-dichloro-5-hydroxy-1-(2-morpholinoethyl)-1H-pyrrol-2(5H)-one] | 38.9 ± 5.2
O=C1C(Cl)=C(Cl)C(O)N1Cc1ccc(C(F)(F)F)cc1 (centres unmarked) [Compound 40, 3,4-dichloro-5-hydroxy-1-(4-(trifluoromethyl)benzyl)-1H-pyrrol-2(5H)-one] | 15.3 ± 2.5
O=C1C(Cl)=C(Cl)CN1Cc1ccccc1 [Compound 11] | 42.5 ± 9.6
COC1OC(=O)C(Cl)=C1Cl (centres unmarked) [Compound 6] | 0
O=C1OCC(Cl)=C1Cl [Compound 5, 3,4-Dichloro-5H-furan-2-one] | 0
CC(C)CNC1=C(Cl)C(=O)OC1c1ccccc1 (centres unmarked) [Compound 4] | 0
O=C1C(Cl)=C(Cl)C(O)N1CCc1ccccc1 (centres unmarked) [Compound 29, 3,4-dichloro-5-hydroxy-1-phenethyl-1H-pyrrol-2(5H)-one] | 57.6 ± 6.6
O=C1OC(c2ccccc2)C(NCc2ccccc2)=C1Cl (centres unmarked) [Compound 3] | 65.6 ± 6.5
CC(=O)OC1C(Cl)=C(Cl)C(=O)N1Cc1ccccc1 (centres unmarked) [Compound 13] | 0
O=C1OC(c2ccccc2)C(Br)=C1Br (centres unmarked) [Compound 2] | 0
O=C1c2ccccc2C(O)N1Cc1ccccc1 (centres unmarked) [Compound 20] | 102.9 ± 1.6
CC1=C(C)C(O)N(Cc2ccccc2)C1=O (centres unmarked) [Compound 17] | 82.0 ± 10.2

same assay, conditions: mouse, plasma

Structure (SMILES) | stability in the plasma assay
O=C1NC(O)C(Cl)=C1Cl (centres unmarked) [Compound 9] | remarkably improved stability
O=C1C(Cl)=C(Cl)C(O)N1Cc1ccccc1 (stereo not drawn) [Compound 10, α,β-dichloro-γ-hydroxy-N-benzyl-crotonic lactam] | remarkably improved stability

test system: VSVΔ51-GFP in normal mouse brain, lung and spleens; test: not given; details: not given

Structure (SMILES) | impact on VSVΔ51 in normal tissue specimens
O=C1C(Cl)=C(Cl)C(O)N1CCN1CCOCC1 (centres unmarked) [Compound 28, 3,4-dichloro-5-hydroxy-1-(2-morpholinoethyl)-1H-pyrrol-2(5H)-one] | little to no impact
O=C1C(Cl)=C(Cl)C(O)N1Cc1ccc(C(F)(F)F)cc1 (centres unmarked) [Compound 40, 3,4-dichloro-5-hydroxy-1-(4-(trifluoromethyl)benzyl)-1H-pyrrol-2(5H)-one] | increases infection and replication in brain tissue

test system: not given; test: not given; details: female, Balb/c, mouse, in vivo

Structure (SMILES) | tolerated dose relative to parent compound 1 [×]
O=C1C(Cl)=C(Cl)C(O)N1CCN1CCOCC1 (centres unmarked) [Compound 28, 3,4-dichloro-5-hydroxy-1-(2-morpholinoethyl)-1H-pyrrol-2(5H)-one] | > 10

same assay, conditions: female, Balb/c, mouse, in vivo, ip

Structure (SMILES) | dose at which toxicity starts [mg/kg] | dose up to which well tolerated
O=C1OC(c2ccccc2)C(Cl)=C1Cl (centres unmarked) [Compound 1, 3,4-dichloro-5-phenyl-2,5-dihydrofuran-2-one, reference compound] | ≥ 10 | –
O=C1C(Cl)=C(Cl)C(O)N1Cc1ccccc1 (stereo not drawn) [Compound 10, α,β-dichloro-γ-hydroxy-N-benzyl-crotonic lactam] | – | ≤ 50 mg/kg
O=C1C(Cl)=C(Cl)C(O)N1CCN1CCOCC1 (centres unmarked) [Compound 28, 3,4-dichloro-5-hydroxy-1-(2-morpholinoethyl)-1H-pyrrol-2(5H)-one] | – | up to 100 mg/kg

test system: VSVΔ51; test: not given; details: cited from earlier work

Structure (SMILES) | increase of virus output
O=C1OC(c2ccccc2)C(Cl)=C1Cl (centres unmarked) [Compound 1, 3,4-dichloro-5-phenyl-2,5-dihydrofuran-2-one, reference compound] | ≤ 1,000 fold

test system: not listed separately; test: physchem; details: buffer

Structure (SMILES) | half-life [min]
O=C1NC(O)C(Cl)=C1Cl (centres unmarked) [Compound 9] | 117
O=C1C(Cl)=C(Cl)C(O)(c2ccccc2)N1Cc1ccccc1 (centres unmarked) [Compound 15] | 340
O=C1C(Cl)=C(Cl)C(O)N1C1CC1 (centres unmarked) [Compound 25, 3,4-dichloro-1-cyclopropyl-5-hydroxy-1H-pyrrol-2(5H)-one] | 53
C#CCOC1OC(=O)C(Cl)=C1Cl (centres unmarked) [Compound 7] | < 5
COC1C(Cl)=C(Cl)C(=O)N1Cc1ccccc1 (centres unmarked) [Compound 12] | 118
O=C1C(Cl)=C(Cl)C(=O)N1Cc1ccccc1 [Compound 14] | < 5
O=C1OC(c2ccccc2)C(Cl)=C1Cl (centres unmarked) [Compound 1, 3,4-dichloro-5-phenyl-2,5-dihydrofuran-2-one, reference compound] | < 5
O=C1C(Cl)=C(Cl)C(O)N1Cc1ccccc1 (stereo not drawn) [Compound 10, α,β-dichloro-γ-hydroxy-N-benzyl-crotonic lactam] | 32
O=C1C(Cl)=C(Cl)C(O)N1CCN1CCOCC1 (centres unmarked) [Compound 28, 3,4-dichloro-5-hydroxy-1-(2-morpholinoethyl)-1H-pyrrol-2(5H)-one] | 96
O=C1C(Cl)=C(Cl)C(O)N1Cc1ccc(C(F)(F)F)cc1 (centres unmarked) [Compound 40, 3,4-dichloro-5-hydroxy-1-(4-(trifluoromethyl)benzyl)-1H-pyrrol-2(5H)-one] | 32
O=C1C(Cl)=C(Cl)CN1Cc1ccccc1 [Compound 11] | 64
COC1OC(=O)C(Cl)=C1Cl (centres unmarked) [Compound 6] | < 5
O=C1OCC(Cl)=C1Cl [Compound 5, 3,4-Dichloro-5H-furan-2-one] | < 5
O=C1C(Cl)=C(Cl)C(O)N1CCc1ccccc1 (centres unmarked) [Compound 29, 3,4-dichloro-5-hydroxy-1-phenethyl-1H-pyrrol-2(5H)-one] | 74
CC(=O)OC1C(Cl)=C(Cl)C(=O)N1Cc1ccccc1 (centres unmarked) [Compound 13] | 21
O=C1OC(c2ccccc2)C(Br)=C1Br (centres unmarked) [Compound 2] | < 5

test system: not listed separately; test: physchem; details: buffer, pH 7.4

Structure (SMILES) | half-life [min]
O=C1OC(c2ccccc2)C(Cl)=C1Cl (centres unmarked) [Compound 1, 3,4-dichloro-5-phenyl-2,5-dihydrofuran-2-one, reference compound] | 28.8
